Laboratory results taken from PMC4641600, “Novel Activities of Select NSAID R-Enantiomers against Rac1 and Cdc42 GTPases” (PLoS ONE, 2015).
Where a name gives a salt, the structure may show the parent alone.

Columns and labels:
[1] = tested on: Rab2 wt, Rab7 wt, Cdc42 wt, Cdc42Q61L, H-Ras wt, H-RasG12V, Rac1 wt and Rac1Q61L; assay: Primary multiplex screen, BODIPY-FL-GTP binding on bead-bound GTPases (flow cytometry); conditions: for Primary Screen Hit: single dose 10 µM, change in BODIPY-GTP binding on any one GTPase; for primary screen outcome: 10 μM compound
[2] = tested on: Rac1 membrane localization; assay: Rac1 immunolocalization, OvCa433 cells; type: cell-based, human; conditions: for Rac1 membrane localization: 300 μM; for Rac PM Localiz.: immunofluorescence quantified using ImageJ
[3] = tested on: Ras-related GTPases; assay: Confirmatory dose response assays on eight Ras-related GTPases; type: binding; conditions: for activity against the GTPases in confirmatory dose response assays (words): 10 nM to 100 µM
Experimental: (§1) For multiplex analyses of small GTPases, 4 μm diameter glutathione-beads (GSH-beads) distinguished by seven different intensities of red fluorescence were used according to our previously described protocols. The GST-GTPases included the following eight Ras-related small GTPases: Rab2 wt, Rab7 wt, Cdc42 wt, Cdc42Q61L activating mutant, H-Ras wt, H-RasG12V, Rac1 wt and Rac1Q61L activating mutant. Briefly, Prestwick Chemical Library® compounds were tested at 10 μM compound and 1% DMSO final concentrations. After a 10 min pre-incubation with the compound BODIPY- FL-GTP (100 nM final) was added to each well and bead associated fluorescence was measured. Sample analysis was conducted with a HyperCyt® high throughput flow cytometry platform. Flow cytometric light scatter at 488 nm and fluorescence emission at 530 +/− 20 nm (FL1) and 665 +/− 10 nm (FL8) were collected on a Cyan ADP flow cytometer (Beckman Coulter, Fullerton, CA). IDLQuery software was used to determine the compound activity in each well. Gating based on forward scatter (FS) and side scatter (SS) parameters was used to identify singlet bead populations. Gating based on FL8 emission distinguishes the beads coated with different proteins, and the median FL1 fluorescence per bead population were calculated. A compound was considered a “potential active” if the change in BODIPY-FL-GTP binding differed greater than 20% from that measured in DMSO treated controls.
(§2) Test compounds identified for follow-up after the primary screen were tested at dilutions ranging from 10 nM to 100 μM final concentration against individual GTPases in multiplex and single-plex assays. Compounds tested in dose response assays were serially diluted 1:3 a total of eight times from a starting concentration of 10 mM giving a 9-point dilution series in DMSO.
(§3) bConfirmatory screens entailed dose response assays conducted in a multiplex format with eight GTPases tested as for primary screen. BODIPY-GTP-binding activity was
(§4) measured in the presence of 10 nM to 100 µM of each of 11 test compounds (4 primary screen hits and 7 additional NSAIDs considered to have chemical similarity to GTPase
(§5) active compounds). GST-GFP coated beads served as a control to detect non-specific dissociation or denaturation caused by compound addition–none of the tested NSAIDs had
(§6) any effect on bead-GST-protein binding. EC50 values were determined using Prism to determine dose response fits as shown in Figure 1 of main text; fits have R2 > 0.9. Active
(§7) compounds based on same definition used as in primary screena. […]
(§8) ‡A well-characterized selective Cdc42 inhibitor served as a positive control.

[4] = molecular target: Rac1 wt (Homo sapiens, UniProt P63000); assay: Dose response, BODIPY-GTP binding; conditions: 10 nM to 100 µM
[5] = molecular target: Cdc42 wt (Homo sapiens, UniProt P60953); assay: Dose response, BODIPY-GTP binding; conditions: 10 nM to 100 µM
Sequence of Cdc42 wt (P60953 whole entry): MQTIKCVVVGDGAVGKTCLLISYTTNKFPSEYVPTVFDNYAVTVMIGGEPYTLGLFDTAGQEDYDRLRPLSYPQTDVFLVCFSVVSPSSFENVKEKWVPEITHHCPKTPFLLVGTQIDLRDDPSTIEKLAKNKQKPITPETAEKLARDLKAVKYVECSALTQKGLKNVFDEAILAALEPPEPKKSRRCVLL

[6] = molecular target: H-RasG12V (Homo sapiens, UniProt P01112, G12V); assay: Dose response, BODIPY-GTP binding; conditions: 10 nM to 100 µM
Experimental: as §1, §2, §3, §4, §5, §6, §7, §8

[7] = molecular target: Cdc42Q61L activating mutant (Homo sapiens, UniProt P60953, Q61L); assay: Dose response, BODIPY-GTP binding; conditions: 10 nM to 100 µM; read-out: Cdc42 (act) EC50
Sequence of Cdc42Q61L activating mutant (P60953 whole entry Q61L): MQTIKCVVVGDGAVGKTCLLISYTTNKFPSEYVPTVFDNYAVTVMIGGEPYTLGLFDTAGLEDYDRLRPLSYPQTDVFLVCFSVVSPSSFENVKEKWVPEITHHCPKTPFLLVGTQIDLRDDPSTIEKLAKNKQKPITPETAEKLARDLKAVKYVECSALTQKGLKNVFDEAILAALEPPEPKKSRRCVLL

[8] = molecular target: H-Ras wt (Homo sapiens, UniProt P01112); assay: Dose response, BODIPY-GTP binding; conditions: 10 nM to 100 µM
Experimental: as §1, §2, §3, §4, §5, §6, §7

[9] = molecular target: Rab7 (Homo sapiens, UniProt P51149); assay: Dose response, BODIPY-GTP binding; conditions: 10 nM to 100 µM
Sequence of Rab7 (P51149 whole entry, species assumed): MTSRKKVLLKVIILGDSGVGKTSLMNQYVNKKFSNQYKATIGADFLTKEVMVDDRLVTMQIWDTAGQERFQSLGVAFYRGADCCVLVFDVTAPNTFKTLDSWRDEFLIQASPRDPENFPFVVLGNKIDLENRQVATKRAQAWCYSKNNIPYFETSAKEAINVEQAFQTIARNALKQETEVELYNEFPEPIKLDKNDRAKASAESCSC

[10] = molecular target: Rab2 (Homo sapiens, UniProt P61019); assay: Dose response, BODIPY-GTP binding; conditions: 10 nM to 100 µM
Sequence of Rab2 (P61019 whole entry, species assumed): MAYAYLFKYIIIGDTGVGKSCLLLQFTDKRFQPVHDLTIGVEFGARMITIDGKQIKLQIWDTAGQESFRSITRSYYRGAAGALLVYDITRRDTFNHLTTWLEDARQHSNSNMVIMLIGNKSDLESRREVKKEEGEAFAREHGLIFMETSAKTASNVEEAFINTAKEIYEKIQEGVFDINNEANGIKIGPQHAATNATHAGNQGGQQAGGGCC

[11] = tested on: Tiam1 membrane localization; assay: Tiam1 immunolocalization, OvCa433 cells; type: cell-based, human
Experimental: OvCa433 were plated on coverslips, treated with 300 μM NSAIDs for 1 h, fixed with 3% paraformaldehyde and immunostained for Rac1 or Tiam1. Actin was visualized with rhodamine phalloidin from Invitrogen (F432). Cells were imaged on a Zeiss LSM510 using a 63x objective and quantified using Image J.
Rac1 and Tiam1 antibodies were confirmed in our hands to recognize single protein species of the predicted molecular weight by immunoblot.

[12] = tested on: Rac1 and Tiam1 protein levels; assay: Immunoblot of protein levels; type: cell-based, human
Experimental: Cells were stimulated with EGF at a final concentration of 1 nM for 10 min. Cells were lysed in a RIPA buffer consisting of 50 mM Tris pH 7.4, 1% NP-40, 0.25% sodium deoxycholate, 150 mM NaCl, 1 mM EDTA, 1 mM PMSF, 1 mM sodium vanadate, 10 mM sodium fluoride, 1 μg/mL each of pepstatin, aprotinin and leupeptin, 10 mM sodium pyrophosphate and 10 mM beta-glycerophosphate.
N = 3. See also Figure D in S1 File for time dependent loss of Rac1 membrane localization. N = 3 (B) Quantification of image intensity using Image J of 3 representative confocal images as shown in panel (A) containing 20–30 cells/field normalized to actin and untreated controls. (C) Western blot analyses of lysates from cells treated with 300 μM compound as indicated for 24 h as compared to untreated controls. […] Blots were probed for Tiam1 (200 kDa), GAPDH (37 kDa), Rac1 (20 kDa), as a loading control. (D) Quantification of image intensity using Image J. Each marker was normalized to GAPDH and untreated controls. N = 3.

[13] = molecular target: Rac1Q61L activating mutant (Homo sapiens, UniProt P63000, Q61L); assay: Dose response, BODIPY-GTP binding; conditions: 10 nM to 100 µM; read-out: Rac1 (act) EC50
[14] = assays performed with 0.1% DMSO

For `CC(=O)Nc1ccc(O)cc1` [Acetaminophen], the “Primary Screen Hit” value [1] was “Inactive”.
In the case of `CC(=O)Oc1ccccc1C(=O)O` [Acetylsalicylic acid], the “Rac1 membrane localization” value [2] is reported as “did not alter”.
In the case of `CC(=O)Oc1ccccc1C(=O)Oc1ccccc1C(=O)O` [Acetylsalicylsalicylic acid], the “Primary Screen Hit” value [1] is reported as “Inactive”.
`Cc1ccc(-c2cc(C(F)(F)F)nn2-c2ccc(S(N)(=O)=O)cc2)cc1` [Celecoxib] was tested, and the “activity against the GTPases in confirmatory dose response assays (words)” value (shortened to “activity against the GTPases”) [3] was “inactive”.
For `O=C(O)Cc1ccccc1Nc1c(Cl)cccc1Cl` [Diclofenac sodium], the “Primary Screen Hit” value [1] was “Inactive”.
`O=C(O)c1cc(-c2ccc(F)cc2F)ccc1O` [Diflunisal] was tested, and the “Primary Screen Hit” value [1] was “Inactive”.
`CC(C(=O)O)c1cccc(Oc2ccccc2)c1` (stereo not drawn) [Fenoprofen] was tested, and the “Rac1 membrane localization” value [2] was “did not alter”, the “Rac1 wt EC50” value [4] was “Inactive” and the “primary screen outcome” value [1] was “positive”. The “Primary Screen Hit” value [1] was “Active”.
For `CC(C(=O)O)c1cccc(C(=O)c2ccccc2)c1` (stereo not drawn) [Ketoprofen], the “Rac1 membrane localization” value [2] was “did not alter” and the “Rac PM Localiz.” value [2, 14] was 45%.
For `CN1C(C(=O)Nc2ccccn2)=C(O)c2ccccc2S1(=O)=O` [Piroxicam], the “Primary Screen Hit” value [1] was “Inactive”.
In the case of `CC(C)Cc1ccc([C@H](C)C(=O)O)cc1` [S-(+)-Ibuprofen, (S)-(+)-Ibuprofen], the “Cdc42 wt EC50” value [5] is reported as “inactive”, the “Rac PM Localiz.” value [2, 14] is reported as 78% and the “H-Ras (act) EC50” value [6] is reported as “inactive”. The EC50 [7] was 6.41 µM, the “primary screen outcome” value [1] was “positive” and the “Primary Screen Hit” value [1] was “Active”. For the same compound, the “H-Ras wt EC50” value [8] was “inactive”.
`COc1ccc2cc([C@H](C)C(=O)O)ccc2c1` [S-naproxen] was tested, and the “Rab7 EC50” value [9] was “inactive”, the “Rac1 membrane localization” value [2] was “no effect” and the “Rac PM Localiz.” value [2] was 87%. The “H-Ras (act) EC50” value [6] was “inactive”, the “times less active than the R-enantiomer” value [3] was 10–20 times and the “activity against the GTPases” value [3] was “varying activity levels”. The “Rab2 EC50” value [10] was “inactive”, the “Tiam1 membrane localization” value ([11]; 300 μM) was “only slightly reduced” and the “Tiam1 GEF PM localiz.” value ([11]; immunofluorescence quantified using ImageJ) was 65%. For the same compound, the “total Rac1 or Tiam1 protein levels” value ([12]; 300 μM, 24 h, immunoblot) was “did not alter”, the Rac protein expression ([12]; immunoblot analysis) was “No change” and the “H-Ras wt EC50” value [8] was “inactive”.
For `CSc1ccc(/C=C2/C(C)=C(CC(=O)O)c3cc(F)ccc32)cc1` [Sulindac sulfide], the “Rab7 EC50” value [9] was “inactive”, the EC50 [5] was greater than 100 µM and the EC50 [13] was 53 µM. The “H-Ras (act) EC50” value [6] was “inactive”, the EC50 [7] was 48.6 µM and the “activity against the GTPases” value [3] was “varying activity levels”. For the same compound, the EC50 [4] was 54 µM, the “Rab2 EC50” value [10] was “inactive” and the “H-Ras wt EC50” value [8] was “inactive”.
`CC1=C(CC(=O)O)c2cc(F)ccc2/C1=C\c1ccc([S+](C)[O-])cc1` (stereo not drawn) [Sulindac] was tested, and the “Primary Screen Hit” value [1] was “Inactive”.
In the case of `CC(C(=O)O)c1ccc(C(=O)c2cccs2)cc1` (stereo not drawn) [Suprofen], the “Primary Screen Hit” value [1] is reported as “Inactive”.
In the case of `CC(C(=O)O)c1ccc(C(=O)c2ccccc2)s1` (stereo not drawn) [Tiaprofenic acid], the “Primary Screen Hit” value [1] is reported as “Inactive”.
For `Cc1c(Cl)cccc1Nc1ccccc1C(=O)O` [Tolfenamic acid], the “Primary Screen Hit” value [1] was “Inactive”.
For `Cc1ccc(C(=O)c2ccc(CC(=O)O)n2C)cc1` [Tolmetin sodium salt dihydrate], the “Primary Screen Hit” value [1] was “Inactive”.
With `Cc1onc(-c2ccccc2)c1-c1ccc(S(N)(=O)=O)cc1` [Valdecoxib] the “activity against the GTPases” value [3] was “inactive”.
In the case of `CC(C)Cc1ccc(C(C)C(=O)O)cc1` (stereo not drawn) [ibuprofen], the “Rac1 membrane localization” value [2] is reported as “did not alter”.
